Data reported in paper PMC9434702 (Journal of medicinal chemistry, 2022).
Blank lines part the entries; values can stand above or below the molecule they belong to.

Tests used:
[1] = rat brain; cited from earlier work
mGluR2 [2] = target: T1, mGluR2 (Homo sapiens, UniProt Q14416); settings: mGluR2 NAM; cited from earlier work
mGluR2 [3] = target: mGluR2 (Rattus norvegicus, UniProt P31421); test: Pretreatment; assay type: in vivo, Sprague–Dawley rats
[4] = rat; cited from earlier work
recombinant human Pgp = recombinant human Pgp (Homo sapiens, UniProt P08183); test: Pgp-Glo assay; assay type: in vitro ADME; settings: 100 μM compound; change relative to Na3VO4 samples = Pgp ATPase activity
mGluR2 [5] = target: T1, mGluR2
[6] = Rat liver microsome stability; assay type: in vitro ADME, Sprague–Dawley rat; settings: NADPH, 37 °C, peak area at 60 min vs 0 min
Rat plasma stability = assay type: in vitro ADME; settings: 37 °C, peak area at 60 min vs 0 min
[7] = 0.5 mg/kg iv., 1 min before tracer
[8] = 0.2 mg/kg iv., 1 min before tracer
[9] = 0.2 mg/kg iv., 20 min before tracer

T1 sequence (Q14416 19-872): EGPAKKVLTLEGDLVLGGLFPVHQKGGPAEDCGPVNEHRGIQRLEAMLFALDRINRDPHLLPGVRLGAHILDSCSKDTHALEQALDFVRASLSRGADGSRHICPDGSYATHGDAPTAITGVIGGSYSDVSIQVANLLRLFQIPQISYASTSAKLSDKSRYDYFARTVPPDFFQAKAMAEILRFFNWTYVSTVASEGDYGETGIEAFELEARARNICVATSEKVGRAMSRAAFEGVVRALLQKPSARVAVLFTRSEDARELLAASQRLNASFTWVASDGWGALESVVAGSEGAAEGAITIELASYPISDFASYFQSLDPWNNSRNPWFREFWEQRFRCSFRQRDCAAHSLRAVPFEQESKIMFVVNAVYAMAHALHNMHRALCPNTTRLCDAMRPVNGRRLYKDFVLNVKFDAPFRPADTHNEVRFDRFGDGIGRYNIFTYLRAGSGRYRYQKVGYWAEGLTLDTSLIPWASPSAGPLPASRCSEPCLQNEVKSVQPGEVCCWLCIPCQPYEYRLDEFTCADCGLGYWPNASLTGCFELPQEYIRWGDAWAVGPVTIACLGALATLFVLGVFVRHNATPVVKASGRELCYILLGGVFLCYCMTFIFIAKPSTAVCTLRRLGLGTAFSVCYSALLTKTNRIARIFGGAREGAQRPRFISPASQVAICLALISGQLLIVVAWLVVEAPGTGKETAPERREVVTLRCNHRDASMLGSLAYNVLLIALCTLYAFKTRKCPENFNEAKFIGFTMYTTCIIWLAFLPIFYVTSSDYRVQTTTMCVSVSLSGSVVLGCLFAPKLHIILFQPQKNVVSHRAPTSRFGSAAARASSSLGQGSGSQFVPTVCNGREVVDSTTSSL
Chain of mGluR2 (Rattus norvegicus, UniProt P31421) (P31421 19-872): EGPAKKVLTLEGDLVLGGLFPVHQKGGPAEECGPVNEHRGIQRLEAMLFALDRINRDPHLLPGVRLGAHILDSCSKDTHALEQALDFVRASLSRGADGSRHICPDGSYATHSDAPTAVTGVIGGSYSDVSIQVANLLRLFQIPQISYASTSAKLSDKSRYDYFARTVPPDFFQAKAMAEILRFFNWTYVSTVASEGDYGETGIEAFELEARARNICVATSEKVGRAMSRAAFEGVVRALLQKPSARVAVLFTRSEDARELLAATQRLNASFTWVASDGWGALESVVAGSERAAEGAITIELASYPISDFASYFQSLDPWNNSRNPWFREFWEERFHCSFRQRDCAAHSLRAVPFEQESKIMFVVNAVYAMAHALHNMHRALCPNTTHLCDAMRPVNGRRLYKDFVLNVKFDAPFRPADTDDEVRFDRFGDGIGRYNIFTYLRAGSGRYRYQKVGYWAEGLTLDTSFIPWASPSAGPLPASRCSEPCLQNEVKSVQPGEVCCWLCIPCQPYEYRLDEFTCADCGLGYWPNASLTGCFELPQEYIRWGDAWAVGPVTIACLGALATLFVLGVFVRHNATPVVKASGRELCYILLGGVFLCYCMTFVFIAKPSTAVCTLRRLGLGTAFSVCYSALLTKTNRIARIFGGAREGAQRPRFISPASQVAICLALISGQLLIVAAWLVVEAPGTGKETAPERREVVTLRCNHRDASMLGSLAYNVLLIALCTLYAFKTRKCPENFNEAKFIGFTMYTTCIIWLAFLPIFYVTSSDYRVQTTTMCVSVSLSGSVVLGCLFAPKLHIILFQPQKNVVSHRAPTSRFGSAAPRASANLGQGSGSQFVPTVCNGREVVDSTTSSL
Chain of recombinant human Pgp (P08183 whole entry): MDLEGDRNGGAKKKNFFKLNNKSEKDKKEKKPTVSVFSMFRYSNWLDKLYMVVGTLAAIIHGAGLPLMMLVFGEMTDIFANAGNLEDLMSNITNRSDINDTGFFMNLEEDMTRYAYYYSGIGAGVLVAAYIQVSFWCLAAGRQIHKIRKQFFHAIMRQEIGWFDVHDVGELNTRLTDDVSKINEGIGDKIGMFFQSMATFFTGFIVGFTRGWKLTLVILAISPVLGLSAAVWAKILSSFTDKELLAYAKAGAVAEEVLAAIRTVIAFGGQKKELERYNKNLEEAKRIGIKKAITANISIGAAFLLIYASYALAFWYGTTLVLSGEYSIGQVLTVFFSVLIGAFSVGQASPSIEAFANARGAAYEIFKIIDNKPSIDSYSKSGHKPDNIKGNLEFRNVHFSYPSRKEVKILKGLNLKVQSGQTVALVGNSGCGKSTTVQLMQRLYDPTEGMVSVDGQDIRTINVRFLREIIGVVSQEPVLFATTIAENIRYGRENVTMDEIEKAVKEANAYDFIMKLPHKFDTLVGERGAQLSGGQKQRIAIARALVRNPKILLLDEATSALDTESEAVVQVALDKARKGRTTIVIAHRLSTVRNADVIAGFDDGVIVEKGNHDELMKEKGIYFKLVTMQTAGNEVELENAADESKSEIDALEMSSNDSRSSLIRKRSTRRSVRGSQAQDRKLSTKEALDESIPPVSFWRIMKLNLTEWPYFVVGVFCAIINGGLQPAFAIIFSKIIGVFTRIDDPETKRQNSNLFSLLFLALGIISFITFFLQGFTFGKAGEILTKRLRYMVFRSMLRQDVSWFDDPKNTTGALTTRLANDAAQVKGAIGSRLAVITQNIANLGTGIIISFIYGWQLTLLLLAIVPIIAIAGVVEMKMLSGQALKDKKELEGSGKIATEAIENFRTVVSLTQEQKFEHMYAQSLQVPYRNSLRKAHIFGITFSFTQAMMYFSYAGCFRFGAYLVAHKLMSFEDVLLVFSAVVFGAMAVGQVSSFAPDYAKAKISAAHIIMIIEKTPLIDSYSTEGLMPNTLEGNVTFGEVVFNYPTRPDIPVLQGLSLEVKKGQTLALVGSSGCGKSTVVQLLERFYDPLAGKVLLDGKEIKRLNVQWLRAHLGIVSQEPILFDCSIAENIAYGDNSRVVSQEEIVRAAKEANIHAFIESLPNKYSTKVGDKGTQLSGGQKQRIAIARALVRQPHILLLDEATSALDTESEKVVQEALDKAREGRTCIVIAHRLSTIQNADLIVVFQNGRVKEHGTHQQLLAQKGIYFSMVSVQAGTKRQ

Compound: COc1ccc(-c2cc(C(N)=O)nc3cc(CN4C(=O)CCC4=O)ccc23)c(F)c1 [compound 7]
SUVmax [1]: 0.3

Compound: Cn1ccc(COc2cnc(C(N)=O)cc2-c2ccc(F)cc2)n1 [compound 9]
IC50 (mGluR2 [2]): 78 nM | decrease of [11C]13 radioactivity accumulation, average across ROIs (mGluR2 [3]; [7]): 22.4 ± 7.3% | decrease of [11C]13 radioactivity accumulation, cortex (highest) (mGluR2 [3]; [7]): 38.5% | decrease of [11C]13 radioactivity accumulation, thalamus (least) (mGluR2 [3]; [7]): 17.1% | decrease of [11C]13 radioactivity accumulation, total average (mGluR2 [3]; 0.5 mg/kg iv., 20 min before tracer): 14.5 ± 1.5% | half-life (t1/2) [4]: 20 min | plasma clearance (CLp) [4]: 118 mL/min/kg

Compound: N#Cc1cc(C2=Nc3ccc(Br)cc3NC(=O)C2)ccn1 [compound 26]
decrease of [11C]13 radioactivity accumulation, among ROIs (mGluR2 [3]; [8]): 41.7 ± 1.1% | decrease of [11C]13 radioactivity accumulation, cerebellum (least) (mGluR2 [3]; [8]): 39.6% | decrease of [11C]13 radioactivity accumulation, hypothalamus (highest) (mGluR2 [3]; [8]): 42.6% | decrease of [11C]13 radioactivity accumulation, average (mGluR2 [3]; [9]): 12.7 ± 1.7% | decrease of [11C]13 radioactivity accumulation, cerebellum (highest) (mGluR2 [3]; [9]): 15.2% | decrease of [11C]13 radioactivity accumulation, striatum (lowest) (mGluR2 [3]; [9]): 11.1%

Other lines, results leading:

luminescence change (p/s) (recombinant human Pgp): 3.07 × 10^7 p/s | agonist activity at mGluR2 (mGluR2 [5]; cells induced with 1 μg/mL tetracycline, no glutamate): no agonist activity was observed | concentration at which potent NAM activity begins (mGluR2 [5]; in the presence of increasing concentrations of L-glutamate): ~30 nM | microsome stability [6]: > 92% | plasma stability (Rat plasma stability): > 92%
Compound: CC1(C)CCc2c(-c3ccc(F)cc3F)cc(C(N)=O)nc2O1 [compound 12, 5-(2,4-Difluorophenyl)-2,2-dimethyl-3,4-dihydro-2H-pyrano[2,3-b]pyridine-7-carboxamide]

luminescence change (p/s) (recombinant human Pgp): 1.53 × 10^7 p/s | plasma stability (Rat plasma stability): 94.5%
Compound: COc1ccc(-c2cc(C(N)=O)nc3c2CCC(C)(C)O3)c(F)c1 [compound 13, 5-(2-Fluoro-4-methoxyphenyl)-2,2-dimethyl-3,4-dihydro-2H-pyrano[2,3-b]pyridine-7-carboxamide]
